Patent US20210259954A1, “CILIA-TARGETING NANOPARTICLES” (Chapman University, priority 2019, published 2021)

Assays:
[1] = test system: Tie2Cre⋅IFT88^flox/flox mice; experiment: Working heart perfusion system, hearts of treated IFT88 mice; assay type: in vivo, mouse
LLC-PK1 cells = experiment: Intracellular and ciliary Ca2+ and NO imaging under flow or magnetic field (Example 2); assay type: cell-based, porcine; settings: 5HT6-mCherry-G-GECO1.0, single cell single cilium
Protocol: Cells were grown as monolayer on glass-bottomed plates to enable live microscopy imaging. […] For intracellular NO measurements, cells were loaded with 20 μM DAF-FM (Cayman Chemical) for 30 minutes at 37° C. […] Fluid shear stress was then applied to cells through […] peristaltic pumps with an inlet and outlet setup. The fluid was perfused through cell monolayers at a sub-minimal shear stress of 0.5 dyn/cm^2. […] An alnico cylindrical magnet (VWR International, PA) was used to oscillate a primary cilium. This 100-gram AlNiCo magnet produced a permanent magnetic field of 1.35 T. Once a cilium was placed on the specimen holder and in the plane of view, the magnet was mounted on the top of an inverted Nikon Ti-E microscope. The magnet was then mechanically moved with an oscillation frequency of 1.6 Hz. The movement of cilia by the magnetic field was continuously recorded for the duration of the experiment. To examine how much force the magnetic field generated onto a cilium, we calculated the movement of cilia in response to the oscillating magnetic field (Supplement). […] The shear stress ranged from 0.01 to 1.0 dyn/cm^2 and was accurately measured and controlled at all times. […] Approximately 15-20 cilia were analysed for each treatment using different fluorescence filters. […] The GFP/mCherry ratios were also calculated using Nikon tracking software.

[2] = test system: Tie2Cre⋅Pkd2^flox/flox mice; experiment: Working heart perfusion system, hearts of treated Pkd2 mice (Example 2); assay type: in vivo, mouse
Protocol: All mouse experiments were performed by two operators who were blinded to the experimental conditions. […] One-week-old Tie2Cre⋅Pkd2^WT/WT (with Cre activation; control group), Tie2Cre⋅Pkd2^flox/flox (without Cre activation; control group) or Tie2Cre⋅Pkd2^flox/flox (with Cre activation; experimental group) mice were intraperitoneally injected with 250 μg of tamoxifen in a 50-μL volume daily for five consecutive days.
The ex vivo measurements of heart parameters were recorded using a mouse working heart system from Emka Technologies to study heart function independently of neuronal innervation or humoural effects. This system collected data regarding the cardiac contractile strength, electrical heart propagation or ECG and other cardiac functions, including the HR, LVP, LVV, left atrial pressure (LAP), aortic out flow (AOF), stroke volume (SV), cardiac output (CO), end diastolic/systolic volume (Edv-Esv), rate of left atrial pressure raise (+dp/dt) and fall (−dt/dt), and the preload, afterload, and main aortic pressure. Heparin (100 units, IP), xylazine (10-15 mg/kg, IP), and ketamine (200-350 mg/kg, IP) were used to prevent blood coagulation in the coronary arteries and to anaesthetize the mice. After cannulation, the heart was perfused with Krebs-Ringer superfusion solution (in mM: 125 NaCl, 2.5 KCl, 1.25 NaH2PO4, 2 CaCl2, 1 MgCl2, 25 NaHCO3 and 25 glucose). Throughout the experiment, the solution was continuously bubbled with carbogen (95% O2 and 5% CO2) to reach pH 7.4 at 38.0° C. Stress tests were performed on the heart by perfusing epinephrine (4 μg/L) or diltiazem (0.08 μg/L). Cardiac function was plotted in a loop diagram showing the LVV-LVP relationship (volume-pressure loop).

primary cilia = experiment: In vitro cilia length, acetylated-α-tubulin immunofluorescence (Example 1); assay type: cell-based; settings: after 16 hours, vs corresponding controls
Protocol: Immunocytochemistry. For the in vitro cilia length measurements, cells were grown on the Formvar® polymer, as mentioned above. Primary cilia consisting of acetylated microtubule structures were measured by direct immunofluorescence with acetylated-α-tubulin staining with 0, 2, 4, 8, 16, 24 and 32 hours of incubation with different concentrations (0.1-5 μg/mL) of CT-DAu-NPs or CT-PLGA-NPs. Likewise, materials without fenoldopam loading were used as corresponding controls for the CTNDDSs (cCT-DAu-NPs and cCT-PLGA-NPs) and also fenoldopam alone used. The cells were rinsed with sodium cacodylate buffer, fixed with 3% glutaraldehyde in 0.2 M sodium cacodylate buffer for 10 minutes, and permeabilized with 1% Triton-X in sodium cacodylate for 5 min. Acetylated-α-tubulin (1:10,000 dilution, Sigma) and the secondary antibodies were also diluted in 10% FBS to decrease the background florescence; FITC fluorescence secondary antibody (1:1000; Pierce, Inc.) was used. The cells were then washed three times for 5 minutes each with cacodylate buffer and mounted with DAPI (Vector laboratories). Confocal microscopic images were obtained using an inverted Nikon Eclipse Ti confocal microscope.

Oc1ccc(C2CNCCc3c2cc(O)c(O)c3Cl)cc1 (stereo not shown) [Fenoldopam, fenoldopam]
CO, cardiac output ([1]; diltiazem stress): 1857 ± 137 µL/min
EDPVR, end-diastolic pressure volume relation ([1]; diltiazem stress): 0.13 ± 0.01 mmHg/μL
EF, ejection fraction ([1]; diltiazem stress): 51.6 ± 1.7%
ESPVR, end-systolic pressure volume relation ([1]; diltiazem stress): 2.1 ± 0.1 mmHg/μL
HR, heart rate ([1]; diltiazem stress): 104 ± 20 beat/min
LV EDP, end-diastolic pressure ([1]; diltiazem stress): 5.1 ± 0.1 mmHg
LV EDV, end-diastolic volume ([1]; diltiazem stress): 40.0 ± 0.1 µL
LV ESP, end-systolic pressure ([1]; diltiazem stress): 30.2 ± 0.1 mmHg
LV ESV, end-systolic volume ([1]; diltiazem stress): 19.4 ± 0.7 µL
LV Pmax, systolic pressure ([1]; diltiazem stress): 40.2 ± 0.1 mmHg
SV, stroke volume ([1]; diltiazem stress): 20.6 ± 0.7 µL
SW, stroke work ([1]; diltiazem stress): 725 ± 20 mmHg · μL
dP/dtmax, maximum rate of LV pressure rise ([1]; diltiazem stress): 3619 ± 111 mmHg/s
dP/dtmin, maximum rate of LV pressure fall ([1]; diltiazem stress): −1372 ± 330 mmHg/s
CO, cardiac output ([1]; epinephrine stress): 7590 ± 176 µL/min
EDPVR, end-diastolic pressure volume relation ([1]; epinephrine stress): 0.13 ± 0.01 mmHg/μL
EF, ejection fraction ([1]; epinephrine stress): 78.2 ± 2.2%
ESPVR, end-systolic pressure volume relation ([1]; epinephrine stress): 10.0 ± 1.1 mmHg/μL
HR, heart rate ([1]; epinephrine stress): 241 ± 22 beat/min
LV EDP, end-diastolic pressure ([1]; epinephrine stress): 5.3 ± 0.2 mmHg
LV EDV, end-diastolic volume ([1]; epinephrine stress): 40.2 ± 0.1 µL
LV ESP, end-systolic pressure ([1]; epinephrine stress): 64.5 ± 0.2 mmHg
LV ESV, end-systolic volume ([1]; epinephrine stress): 8.7 ± 0.9 µL
LV Pmax, systolic pressure ([1]; epinephrine stress): 56.0 ± 0.3 mmHg
SV, stroke volume ([1]; epinephrine stress): 31.4 ± 0.8 µL
SW, stroke work ([1]; epinephrine stress): 2538 ± 16 mmHg · μL
dP/dtmax, maximum rate of LV pressure rise ([1]; epinephrine stress): 17206 ± 578 mmHg/s
dP/dtmin, maximum rate of LV pressure fall ([1]; epinephrine stress): -3180 ± 120 mmHg/s
CO, cardiac output ([1]; vehicle): 3780 ± 437 µL/min
EDPVR, end-diastolic pressure volume relation ([1]; vehicle): 0.13 ± 0.01 mmHg/μL
EF, ejection fraction ([1]; vehicle): 65.5 ± 3.5%
ESPVR, end-systolic pressure volume relation ([1]; vehicle): 5.4 ± 0.7 mmHg/μL
HR, heart rate ([1]; vehicle): 144 ± 32 beat/min
LV EDP, end-diastolic pressure ([1]; vehicle): 5.1 ± 0.1 mmHg
LV EDV, end-diastolic volume ([1]; vehicle): 40.1 ± 0.1 µL
LV ESP, end-systolic pressure ([1]; vehicle): 54.3 ± 1.0 mmHg
LV ESV, end-systolic volume ([1]; vehicle): 13.8 ± 1.4 µL
LV Pmax, systolic pressure ([1]; vehicle): 72.4 ± 1.3 mmHg
SV, stroke volume ([1]; vehicle): 26.3 ± 1.4 µL
SW, stroke work ([1]; vehicle): 1767 ± 56 mmHg · μL
dP/dtmax, maximum rate of LV pressure rise ([1]; vehicle): 7819 ± 140 mmHg/s
dP/dtmin, maximum rate of LV pressure fall ([1]; vehicle): −1658 ± 190 mmHg/s
intraciliary and cytosolic Ca^2+ signalling (LLC-PK1 cells): induced less of an increase in the intraciliary Ca^2+ signalling
CO, cardiac output ([2]; diltiazem stress): 1783 ± 32 µL/min
EDPVR, end-diastolic pressure volume relation ([2]; diltiazem stress): 0.14 ± 0.01 mmHg/μL
EF, ejection fraction ([2]; diltiazem stress): 49.5 ± 0.3%
ESPVR, end-systolic pressure volume relation ([2]; diltiazem stress): 2.21 ± 0.03 mmHg/μL
HR, heart rate ([2]; diltiazem stress): 94 ± 11 beat/min
LV EDP, end-diastolic pressure ([2]; diltiazem stress): 5.7 ± 0.2 mmHg
LV EDV, end-diastolic volume ([2]; diltiazem stress): 40.0 ± 0.4 µL
LV ESP, end-systolic pressure ([2]; diltiazem stress): 35.5 ± 0.5 mmHg
LV ESV, end-systolic volume ([2]; diltiazem stress): 20.2 ± 0.1 µL
LV Pmax, systolic pressure ([2]; diltiazem stress): 44.7 ± 0.7 mmHg
SV, stroke volume ([2]; diltiazem stress): 19.8 ± 0.3 µL
SW, stroke work ([2]; diltiazem stress): 772 ± 10 mmHg · μL
dP/dtmax, maximum rate of LV pressure rise ([2]; diltiazem stress): 4020 ± 642 mmHg/s
dP/dtmin, maximum rate of LV pressure fall ([2]; diltiazem stress): −1537 ± 97 mmHg/s
EDPVR, end-diastolic pressure volume relation ([2]; epinephrine stress): 0.16 ± 0.01 mmHg/μL
EF, ejection fraction ([2]; epinephrine stress): 77.7 ± 2.0%
ESPVR, end-systolic pressure volume relation ([2]; epinephrine stress): 9.8 ± 0.88 mmHg/μL
HR, heart rate ([2]; epinephrine stress): 216 ± 47 beat/min
LV EDP, end-diastolic pressure ([2]; epinephrine stress): 6.4 ± 0.5 mmHg
LV EDV, end-diastolic volume ([2]; epinephrine stress): 39.9 ± 0.1 µL
LV ESP, end-systolic pressure ([2]; epinephrine stress): 64.2 ± 0.9 mmHg
LV ESV, end-systolic volume ([2]; epinephrine stress): 8.9 ± 0.8 µL
LV Pmax, systolic pressure ([2]; epinephrine stress): 85.6 ± 1.2 mmHg
SV, stroke volume ([2]; epinephrine stress): 31.0 ± 0.8 µL
SW, stroke work ([2]; epinephrine stress): 2569 ± 53 mmHg · μL
dP/dtmax, maximum rate of LV pressure rise ([2]; epinephrine stress): 17130 ± 239 mmHg/s
dP/dtmin, maximum rate of LV pressure fall ([2]; epinephrine stress): −3844 ± 278 mmHg/s
CO, cardiac output ([2]; vehicle): 3402 ± 92 µL/min
EDPVR, end-diastolic pressure volume relation ([2]; vehicle): 0.13 ± 0.01 mmHg/μL
EF, ejection fraction ([2]; vehicle): 62.5 ± 0.2%
ESPVR, end-systolic pressure volume relation ([2]; vehicle): 4.6 ± 0.04 mmHg/μL
HR, heart rate ([2]; vehicle): 136 ± 26 beat/min
LV EDP, end-diastolic pressure ([2]; vehicle): 5.0 ± 0.1 mmHg
LV EDV, end-diastolic volume ([2]; vehicle): 40.0 ± 0.1 µL
LV ESP, end-systolic pressure ([2]; vehicle): 52.2 ± 0.5 mmHg
LV ESV, end-systolic volume ([2]; vehicle): 15.0 ± 0.1 µL
LV Pmax, systolic pressure ([2]; vehicle): 69.7 ± 0.7 mmHg
SV, stroke volume ([2]; vehicle): 25.0 ± 0.1 µL
SW, stroke work ([2]; vehicle): 1616 ± 70 mmHg · μL
dP/dtmax, maximum rate of LV pressure rise ([2]; vehicle): 7524 ± 71 mmHg/s
dP/dtmin, maximum rate of LV pressure fall ([2]; vehicle): −1625 ± 27 mmHg/s
cilia length (primary cilia): significantly increased cilia length
